Reference: patent publication US9757337B2, “Multicompartmental lipid nanoparticles” (CENTRE NATIONAL DE LA RECHERCHE SCIENTIFIQUE—CNRS, priority 2013, dated 2017)

Experiment: Stability of quercetin in various fluids quantified by HPLC assay
Assay type: physicochemical
Procedure: To this end, the stability of quercetin in various fluids was quantified by means of an HPLC assay. The various fluids studied were simulated gastric fluid (SGF, US Pharmacopeia) at room temperature and at 37° C., simulated intestinal fluid (SIF, US Pharmacopeia), 10 mM HEPES buffer (pH 7.4) and room-temperature water.

## O=c1c(O)c(-c2ccc(O)c(O)c2)oc2cc(O)cc(O)c12 [quercetin]
More acidic fluids (SGF), samples over 24 hours
  stability in more acidic fluids compared with room-temperature water: more stable
room-temperature water, within 17 hours
  quercetin degraded: about 50%
